Measurements published in patent US20080255121A1, “Combination Drug for Treating Autoimmune Disease” (DAINIPPON SUMITOMO PHARMA CO., LTD., priority 2004, published 2008).
Where “and” joins values, the source holds several entries; their conditions need not be identical. Equal entries are not always repeated.

Columns and labels:
[1] = system: experimental allergic encephalomyelitis mice; assay: Experimental allergic encephalomyelitis, KN-93; format: in vivo, mouse
Method: The efficacy evaluation of KN-93 was performed with the experimental allergic encephalomyelitis mice as an animal model of multiple sclerosis. The experimental allergic encephalomyelitis was caused following the method of Bradley et al. (J. Clinical Investigation, 107: 995-1006, 2001). That is, 150 μg of PLP partial peptide (PLP139-151: NH2—[…]—COOH, SEQ ID NO 12) mixed in a Freund complete adjuvant was injected subcutaneously to a seven-week old female SJL/J mouse (purchased from Charles River Laboratories Japan) at the rear back. The severity of the condition was indicated as a score (disease score) according to the following criteria.
(§1) 0.5: Slight paralysis of tail
2: Light paralysis of hind leg
3: Medium to intense paralysis of hind leg or light forelimb paralysis
(§2) 4: Complete paralysis of hind paw or medium to intense paralysis of forelimb
(§3) 5: Paralysis of four limbs or toward death period
KN-93 was suspended in 0.5% methylcellulose solution (0.1 mg/ml) and 0.1 ml per 10 g mouse weight was subcutaneously administered. In a control group, only 0.5% methylcellulose solution was subcutaneously administered. The administration was started on the 7 days after sensitization and carried out once a day for consecutive 24 days.

[2] = system: adjuvant-induced arthritis rats; assay: Combination effect on adjuvant-induced arthritis, joint destruction score by soft X-ray (Example 20); format: in vivo, rat
Method: Combination effect for adjuvant-induced arthritic rats was examined in the same manner as in Example 17.
Euthanasia was carried out for all the rats by aspiration of high concentration carbon dioxide after the last administration. Both the hind paws were cut off at the middle point of […]. Both the hind paws were fixed with 10% neutral buffered formalin liquid. […] The degree of joint destruction was recorded with a score. Observed sites were three points of the tibia, calcaneum and tarsal bone, and the possible maximum score was 12.
1: Minimum destruction of joints and bones and new formation of cartilages
2: Mild destruction of joints and bones and new formation and light ossification of cartilages
3: Moderate destruction of joints and bones and ossification
4: Severe destruction and deformation of joints and bones and intense ossification

[3] = system: collagen-induced arthritis rats; conditions: reported in Patent Document 3 and Non-Patent Documents 3 to 5; cited from earlier work
[4] = system: collagen-induced arthritis mouse; assay: Collagen-induced arthritis in mice; format: in vivo
Method: Efficacy evaluation of Compound (I) was performed using a collagen-induced arthritis in mice as an animal model of rheumatoid arthritis. The collagen-induced arthritis was caused following an ordinary method. That is, 0.1 ml of emulsion was injected to a mouse (DBA/1J, male, Charles River Laboratories Japan) at the base of the tail under etherization as primary immunization. The emulsion was prepared by mixing the same volume of a bovine type II collagen solution (2 mg/ml, Collagen Kenshukai) and Freund Complete Adjuvant (Difco). 0.1 ml of emulsion of the same composition was injected at the base of the tail as booster immunization after three weeks and arthritis was caused. The severity of arthritis was indicated as a score according to the following criteria.
1: Swelling at two or less joints
2: Swelling at three or more joints/Slight redding and edema at limbs
3: Swelling at three or more joints/Moderate redding and edema at limbs
4: Severe redding and edema at limbs/Ankylosis
Evaluation is performed for each limb with 0 to 4 points and therefore the possible maximum score in one individual is 16.
Compound (I) and prednisolone (positive control) were suspended in 0.5% methylcellulose solution and 0.1 ml per 10 g mouse weight was orally administered. In a control group, only 0.5% methylcellulose solution was orally administered. The administration was started with the primary immunization and carried out once a day for consecutive 35 days.

[5] = system: experimental allergic encephalomyelitis mice; assay: Experimental allergic encephalomyelitis, Compound (I); format: in vivo
Source text: The severity of the condition was indicated as a score (disease score) according to the following criteria.
as §1
2: Light paralysis of hind paw
3: Medium to intense paralysis of hind paw or light forelimb paralysis
as §2, §3
In the prednisolone administered group as a positive control, prednisolone was suspended in 0.5% methylcellulose solution to prepare a liquid of 0.3 mg/ml for administration and 0.1 ml per 10 g mouse weight was orally administered. In a control group, only 0.5% methylcellulose solution was […] administered. The administration was started on the sensitization day and carried out once a day for consecutive 40 days.

[6] = system: adjuvant-induced arthritis rats; assay: Combination effect on adjuvant-induced arthritis (Example 19); format: in vivo, rat
Method: Combination effect for rat adjuvant-induced arthritis was examined in the same manner as in Example 17.
The volume of the left hind paw was measured by water replacement method just before the administration and after the last administration, and AUC (the area under the curve formed by plotting the difference of the value at the time of grouping from the value of each time point during the administration period against the time) of the increased volume of the left hind paw was determined. Joint destruction of the right hind paw (injected paw) and the left hind paw (non-injection paw) can be measured by X-ray and this can be also used as the index to evaluate the combination effect.

[7] = 5 mg/kg oral once a day 35 days
[8] = Dose 20 mg/kg oral once a day 40 days
[9] = Dose 40 mg/kg oral once a day 40 days

| SMILES | condition (disease score) ([1]; 1 mg/kg subcutaneous once a day 24 days from 7 days after sensitization, FIG. 12) | death ([1]; 1 mg/kg subcutaneous once a day 24 days, control 7 of 10) | joint destruction score of the left hind paw, representative individual which showed an average score in the group ([2]; Compound (I) 40 mg/kg and/or methotrexate 0.06 mg/kg, control score 3, maximum 12) | joint destruction score of the right hind paw, representative individual which showed an average score in the group ([2]; Compound (I) 40 mg/kg and/or methotrexate 0.06 mg/kg, control score 10, maximum 12) | joint destruction of right and left hind paws ([2]; Compound (I) 20, 40, 80 mg/kg in combination with methotrexate 0.06 mg/kg, 17 days) | joint destruction of right and left hind paws ([2]; only Compound (I) 20, 40, 80 mg/kg oral once a day 17 days) | effects on collagen-induced arthritis rats [3] | p, arthritis onset ratio, Fischer's direct probability method with Bonferroni's correction [4, 7] | p, arthritis score, Shirley-Williams multiple comparison test [4, 7] | onset of arthritis ([4]; 5 to 80 mg/kg oral once a day 35 days, FIG. 10) | degree of arthritis ([4]; 5 to 80 mg/kg oral once a day 35 days, FIG. 11) | disease score ([5]; 20, 40, 80 mg/kg oral once a day 40 days, FIG. 13) | Death Rate [5, 8] | Onset Rate [5, 8] | Death Rate [5, 9] | Onset Rate [5, 9] | Onset Rate ([5]; Dose 80 mg/kg oral once a day 40 days) | Death Rate ([5]; Dose 80 mg/kg oral once a day 40 days, 80 mg/kg) | increased volume and onset ratio of left hind paw ([6]; only Compound (I) 20 mg/kg oral once a day 17 days) | increased volume and onset ratio of left hind paw ([6]; only Compound (I) 40 mg/kg and 80 mg/kg oral once a day 17 days) |
| --- | --- | --- | --- | --- | --- | --- | --- | --- | --- | --- | --- | --- | --- | --- | --- | --- | --- | --- | --- | --- |
| COc1ccc(S(=O)(=O)N(CCO)c2ccccc2CN(C)C/C=C/c2ccc(Cl)cc2)cc1 [KN-93, N-(2-[N-[4-chlorocinnamyl]-N-methylaminomethyl]phenyl)-N-(2-hydroxyethyl)-4-methoxybenzenesulfonamide, reference compound] | much lighter as compared with the control group | 2 of 10 |  |  |  |  |  |  |  |  |  |  |  |  |  |  |  |  |  |  |
| C[C@@H](c1ccc(-c2ccccc2)c(F)c1)c1cc(/N=C(/N)N2CCOCC2)on1 [Compound (I), 3-[(1S)-1-(2-fluorobiphenyl-4-yl)ethyl]-5-{[amino(morpholin-4-yl)methylene]amino}isoxazole] |  |  | 1 | 5 | dose-dependently and conspicuously enhanced joint destruction suppressing effect of methotrexate | dose-dependently showed joint destruction suppressing effect | anti-arthritis effects | < 0.05 | < 0.05 | dose-dependently suppressed | slight | suppressed the disease score at any dose | 0/10 | 8/10 | 0/10 | 7/10 | 8/10 | 1 of 10 and 1/10 | edema suppressing effect | onset suppressing effect and edema suppressing effect |
